Patent US5892064A, “Chemiluminescent dialkyl-substituted 1,2-dioxetanes, methods of synthesis and use” (Lumigen, Inc., priority 1997, dated 1999)

Assays:
[1] = literature, cited from earlier work
[2] = Thermal stability of dioxetanes: first order decay of chemiluminescence of dilute solutions in xylene at several temperatures; type: physicochemical; conditions: for Ea: activation energy for thermal decomposition; for Ea / log A: dilute solutions in xylene; for t1/2: thermal decomposition (Table 4; temperature not given); for t1/2 25° C. / log A: thermal decomposition
Experimental: (§1) Chemiluminescence intensities and rate measurements were performed using either a Turner Designs (Sunnyvale, Calif.) model TD-20e luminometer or a luminometer built in house (Black Box) which uses a photon counting photomultiplier. Temperature control of samples analyzed in the luminometers was achieved by means of a circulating bath connected to the instrument. Quantitative measurement of light intensities on the Turner luminometer was extended beyond the 10^4 linear range of the detector by a neutral density filter. Data collection was controlled by an Apple MacIntosh SE/30 computer using the LUMISOFT data reduction program (Lumigen, Inc., Southfield, Mich.).
Activation energies for thermal decomposition of dioxetanes 2c, h and i were determined by measuring the first order rate constant k for decay of chemiluminescence of dilute solutions in xylene at several temperatures.

[3] = Fluoride-triggered (TBAF) chemiluminescent decomposition of dioxetanes in DMSO; type: physicochemical; conditions: for rates of fluoride-triggered decomposition compared / t1/2 trig.: 10 μL of 10^-6 M dioxetane with 50 μL of 1M TBAF in DMSO; for Rate acceleration: fluoride-triggered versus thermal decomposition; for t1/2: [F-] 1M, DMSO
Experimental: as §1
Stock solutions of dioxetanes 2c, 2e, 2g and for comparison, 4-(3-t-butyldimethylsilyloxyphenyl)-4-methoxyspiro [1,2-dioxetane-3,2'-tricyclo[3.3.1.1^3,7 ]decane] (2j), (preparation described in U.S. Pat. No. 4,962,192) were made to a concentration of 10^-6 M in DMSO. Serial dilutions in DMSO were made as required. Ten μL aliquots were triggered in 7×50 mm polypropylene tubes in a Turner Designs TD-20e luminometer by injection of 50 μL of a solution of tetra-n-butylammonium fluoride (TBAF) in DMSO (1M-10^-4 M) in the appropriate solvent, typically DMSO. Light intensity was attenuated when needed by a neutral density filter. All experiments were conducted at ambient temperature. Peak light intensity and decay rate diminished as the fluoride concentration was decreased. At the lowest concentration of fluoride, decay kinetics were not cleanly first order.
The half lives for decay were essentially independent of dioxetane concentration.
The rates of fluoride-triggered decomposition of dioxetanes 2c, h, i and j were compared in DMSO under identical conditions, i.e. 10 μL aliquot of a 10^-6 M solution of dioxetane with 50 μL of 1M TBAF in DMSO. […]

[4] = Thermal and hydrolytic stability of dioxetane in aqueous buffer solution; type: physicochemical; conditions: 0.33 mM, 1 mg/mL Enhancer A, 0.2M buffer pH 9.6, 37° C. versus room temperature, 5 days
Experimental: The thermal and hydrolytic stability of a 0.33 mM solution of dioxetane 2f containing 1 mg/mL of Enhancer A in 0.2M 2-amino-2-methyl-1-propanol buffer, pH 9.6 and 0.88 mM Mg^+2 was determined at 37° C. Solutions of the dioxetane were maintained at room temperature and 37° C. for 5 days. To each of 12 wells in a 96-well microplate was added 100 μL of each solution. The plate was incubated at 37° C. and chemiluminescence emission initiated by addition of 10 μL of solutions containing 1.1×10^-15 mol of AP. Light intensities were integrated for 2.5 hours. Stability of the dioxetane was assessed by comparing the average light yield of the sample incubated at 37° C. to the solution held at room temperature. A decrease in the amount of light emitted indicates decomposition of the dioxetane during the incubation period.

SMILES	half life (t1/2) at 25° C. ([1]; 25° C.)	activation energy for decomposition [1] [kcal/mol]	Ea [2] [kcal/mol]	t1/2 [2] [yr]	t1/2 25° C. [2] [yr]	log A [2]	rates of fluoride-triggered decomposition compared [3]	t1/2 trig. [3] [s]	Rate acceleration [3]	thermal and hydrolytic stability in aqueous solution [4]	t1/2 ([3]; [Dioxetane 2h] 10^-6 M) [s]	t1/2 ([3]; [Dioxetane 2h] 10^-7 M) [s]	t1/2 ([3]; [Dioxetane 2h] 10^-8 M) [s]	t1/2 ([3]; [Dioxetane 2h] 10^-9 M) [s]
C1C2CC3CC1CC(C2)C31OOC12C1CC3CC(C1)CC2C3 (centres unmarked)	several years	37	–	–	–	–	–	–	–	–	–	–	–	–
COC1(c2cccc(OC(C)=O)c2)OOC1(C(C)C)C(C)C (centres unmarked) [Dioxetane 2c]	–	–	28.1	1.2	1.2	12.85	essentially the same rate	7	5.5 × 10^6	–	–	–	–	–
COC1(c2cccc(OP(=O)(O)O)c2)OOC1(C(C)C)C(C)C (centres unmarked) [Dioxetane 2f]	–	–	–	–	–	–	–	–	–	stable under these conditions	–	–	–	–
COC1(c2cccc(O[Si](C)(C)C(C)(C)C)c2)OOC1(C1CCCCC1)C1CCCCC1 (centres unmarked) [Dioxetane 2h]	–	–	29.4	1.7	1.7	13.7	essentially the same rate	7	7.0 × 10^6	–	7.2	6.2	6.2	6.7
COC1(c2cccc(O)c2)OOC1(C1CCCCC1)C1CCCCC1 (centres unmarked) [Dioxetane 2i]	–	–	28.5	1.1	1.1	13.2	essentially the same rate	6	5.7 × 10^6	–	–	–	–	–
COC1(c2cccc(O[Si](C)(C)C(C)(C)C)c2)OOC12C1CC3CC(C1)CC2C3 (centres unmarked) [Dioxetane 2j]	–	–	–	3.8	–	–	essentially the same rate	7	1.4 × 10^7	–	–	–	–	–
